{"source": "ChEMBL document CHEMBL5625209", "about": "“Rational design and optimization of acylthioureas as novel potent influenza virus non-nucleoside polymerase inhibitors” (Eur J Med Chem, 2023)", "key": {"[1]": {"tested_on": "Influenza A virus", "assay": "Antiviral activity against Influenza A virus H1N1 (A/Puerto Rico/8/34) infected in MDCK cells assessed as reduction in NP viral RNA level at 10 uM treated at 1 hr post infection by qRT-PCR analysis", "format": "functional, organism-based"}, "[2]": {"tested_on": "Influenza A virus", "assay": "Antiviral activity against Influenza A virus H1N1 (A/Puerto Rico/8/34) infected in MDCK cells assessed as reduction in NP protein level at 10 uM treated at 1 hr post infection by Western blot analysis", "format": "functional, organism-based"}, "[3]": {"assay": "Metabolic stability in human plasma measured upto 120 mins by LC-MS/MS analysis", "format": "ADME, cell-free", "details": "2 h"}, "[4]": {"assay": "Metabolic stability in human plasma after 15 mins by LC-MS/MS analysis", "format": "ADME, cell-free", "details": "0.25 h, BLD = below limit of detection"}, "[5]": {"assay": "Metabolic stability in human plasma assessed as half life measured upto 120 mins by LC-MS/MS analysis", "format": "ADME, cell-free"}, "[6]": {"tested_on": "Influenza A virus", "assay": "Antiviral activity against Influenza A virus H1N1 (A/Puerto Rico/8/34) infected in MDCK cells assessed as reduction in NP protein level at 10 uM in presence of 125 uM rNTP by Western blot analysis", "format": "functional, organism-based"}, "[7]": {"tested_on": "Influenza A virus", "assay": "Antiviral activity against Influenza A virus H1N1 (A/Puerto Rico/8/34) infected in MDCK cells assessed as reduction in NP protein level at 10 uM in presence of rATP by Western blot analysis", "format": "functional, organism-based"}, "[8]": {"tested_on": "Influenza A virus", "assay": "Antiviral activity against Influenza A virus H1N1 (A/Puerto Rico/8/34) infected in MDCK cells assessed as reduction in NP protein level at 10 uM in presence of rGTP by Western blot analysis", "format": "functional, organism-based"}}, "note": "Activity calls are given as the source filed them. The calls are words filed in the database; no cut-off is given here.", "data": [{"compound": "NC12CC3CC(CC(C3)C1)C2", "values": [{"measurement": "Activity", "setting": "[1]", "result": "Active"}, {"measurement": "Activity", "setting": "[2]", "result": "Active"}]}, {"compound": "CCN(CC)CCOC(=O)c1ccc(N)cc1", "note": "[PROCAINE]", "values": [{"measurement": "Stability", "setting": "[3]", "result": "Unstable"}, {"measurement": "Stability", "setting": "[4]", "result": "Bld"}, {"measurement": "half-life", "setting": "[5]", "result": 1.12, "unit": "min"}]}, {"compound": "NC(=O)c1ncn([C@@H]2O[C@H](CO)[C@@H](O)[C@H]2O)n1", "values": [{"measurement": "Activity", "setting": "[6]", "result": "Active"}, {"measurement": "Activity", "setting": "[7]", "result": "inactive"}, {"measurement": "Activity", "setting": "[8]", "result": "inactive"}]}]}
